From patent publication US11679168B2, “Caspase-3-triggered molecular self-assembling PET probes and uses thereof” (The Board of Trustees of the Leland Stanford Junior …, priority 2018, dated 2023)
Several values for one entry are separate records, joined by “and”; a condition that tells them apart may be missing. Equal entries are not always repeated. Where two headings read alike, the source gives them in different places. Square brackets hold non-standard residues; d marks the D form. Peptide text beside a SMILES is read from it. * marks the point of attachment. NH(CH2)3O(2-CNpyrimidin5yl) = N#Cc1ncc(OCCCN*)cn1; 4Amb = NCc1ccc(C(=O)O)cc1; Pra = C#CC[CH](N)C(=O)O

Tests used:
[1] = Intramolecular cyclization kinetics (HPLC assay); type: physicochemical; details: PBS, pH 7.4, room temperature
Protocol: General Methods for Measuring Intramolecular Cyclization Kinetics: The 1st order rate constants of intramolecular cyclization of I-VI to produce cycl-I-VI, respectively were measured by HPLC assays adapted from the previously reported assay^38. To solutions of substrates I-VI in phosphate buffered saline (PBS) (1×, pH=7.4) were added a solution of TCEP (2.0 equiv.) in PBS (freshly prepared and the pH was adjusted to 7.4 by 1 N sodium hydroxide aqueous solution), affording a final concentration of 100 μM for the substrates. The mixture was kept at room temperature (23° C.) and monitored by HPLC at different time points. The concentration of remaining starting material was calculated using the peak integrals of the starting material at 254 nm. Based on first-order reaction law, In([At]/[A0]) was plotted against time and the slope of the linear regression result gives the first-order rate constant.

[2] = DLS of nanoaggregates of cyclized products; type: physicochemical; details: 10 μM, after raising pH from 4 to 7.4
Protocol: DLS Measurements: DLS measurements samples of I-VI were prepared by diluting fresh stock solutions of I-VI (20 mM in DMSO) to 10 μM solutions with HCl aqueous solution to adjust pH to 4. DLS measurements samples of cycl-I-VI were prepared by adding 0.5 μL of freshly prepared stock solutions of 1-VI (20 mM in DMSO), 6 μL saturated sodium bicarbonate solution into 993.5 μL H2O to adjust pH to 7.4.

[3] = Condensation kinetics of aminothiols with CBT (HPLC assay); type: physicochemical; details: for 2nd order rate constant k: aminothiol with CBT, PBS buffer, room temperature, HPLC assay; for second-order reaction rate: substituted cysteine analogues with CBT, FIG. 50B
Protocol: (§1) General Methods for Measuring Kinetics of Condensation Reactions Between Aromatic Nitriles and Aminothiols: The 2nd order rate constants for condensation reactions between aromatic nitriles and aminothiols were measured by using HPLC assays. To solutions of aromatic nitriles (100 μM) in phosphate buffered saline (PBS) (1×, pH=7.4) were added aminothiol (1.0 equiv.), TCEP (2.0 equiv.) and NaHCO3 (3 equiv.). The reaction solutions were kept at room temperature (23° C.) and monitored by HPLC at different time points. The conversion rates were calculated using the peak integrals of aromatic nitriles and the condensation products at 254 nm. Based on 2nd order reaction law, 1/[aromatic nitrile] was plotted against time and the slope of the linear regression result gives the 2nd order rate constant.

[4] = Condensation kinetics of aromatic nitriles with L-cysteine (HPLC assay); type: physicochemical; details: for 2nd order rate constant k: aromatic nitrile with L-cysteine, PBS buffer, room temperature, HPLC assay; for second-order reaction rate: cyano-substituted aromatic with L-cysteine, phosphate-buffered saline (pH=7.4), FIG. 50A
Protocol: as §1

[5] = system: MetAP2 activity in PC3 cells; assay: Imaging MetAP2 activity in PC3 cells (post click Cy5 labeling); type: cell-based, human
Protocol: FIG. 45B illustrates fluorescence microscopy imaging of cy5 post-labeled M-SNAT (20 μM) with or without TNP470 and M-SNAT-ctrl (20 μM) in PC3 cells. Permealized cells were also stained with DAPI (blue).
Imaging MetAP2 activity in cancer cells: Cell uptake and MetAP2 specific activation of M-SNAT and M-SNAT-ctrl were evaluated in PC3 and DU145 cells with the MetAP2-specific inhibitor TNP-470. Post click fluorescent labeling was performed as illustrated in FIG. 45A to locate the nanoaggregation in cells and avoid the possible interference with probe uptake by pre-conjugating a large Cy5 fluorophore.

[6] = system: MetAP2 activity in 22Rv1 cells; assay: Imaging MetAP2 activity in 22Rv1 cells (post click Cy5 labeling); type: cell-based, human; details: 22Rv1, TNP-470 2 μM
PC3 tumors = assay: 18F-M-SNAT PET/CT imaging of PC3 xenograft mice; type: in vivo
Protocol: FIG. 47A illustrates images after 90 min programed PET/CT scan; n=4. About 150 μCi ^18F-M-SNAT were injected. White and gray indicate CT signal; a thresholding method was utilized to mask the relatively high uptake in liver, spleen, kideney and bladder.
PET/CT imaging of MetAP2 activity in tumor: Before applying fluorine-18 labeled M-SNAT (^18F-M-SNAT) for studies in vivo, the stability of non-radioactive ^19F-M-SNAT was investigated in mouse serum. The ability of ^18F-M-SNAT to indicate MetAP2 activity was assessed in male nude mice bearing subcutaneous PC3 tumors. When the tumors (right shoulder) were grown to 300-500 mm^3, PBS with or without TNP-470 were injected subcutaneously at 50 mg/kg at a remote position (lower left on the back) every other day for 4 days and then injected every day for 5 more days. The last injection was 4 h before imaging (FIG. 47A).
On the day of imaging, fluorine-18 was generated using a cyclotron and conjugated to M-SNAT in a rapid two-step chemical synthesis (FIG. 44). About 150 μCi (8.9 pmol)^18F-M-SNAT were injected to mice intravenously for a programed microPET/CT whole body scan through 90 min. […] About 1.3% was retained at 90 min. In comparison, the inhibitor-treated mice hold about 1% ID/cc through the whole scanning period (FIG. 47C). […] Tumors were resected 20 h after tracer injection for IHC staining ex vivo.

[7] = cited from earlier work; for 2nd order rate constant k: aromatic nitrile with L-cysteine, reported in Reference 13
[8] = system: MetAP2 activity in DU145 cells; assay: Imaging MetAP2 activity in DU145 cells (post click Cy5 labeling); type: cell-based, human; details: DU145, 20 μM, 24 h
Protocol: Imaging MetAP2 activity in cancer cells: […] Post click fluorescent labeling was performed as illustrated in FIG. 45A to locate the nanoaggregation in cells and avoid the possible interference with probe uptake by pre-conjugating a large Cy5 fluorophore.

recombinant human MetAP2 = recombinant human MetAP2 (Homo sapiens, UniProt P50579); assay: Macrocyclization and nanoaggregation of M-SNAT with recombinant MetAP2; details: 10 μM, MetAP2 7.5 μg/ml, TCEP, 24 h
[9] = system: β-galactosidase activity in 9L/LacZ cells
Protocol: FIG. 33 illustrates quantification of fluorescent intensity in the flow cytometry data in FIG. 3G.
Confocal Microscopy Imaging of 9L/LacZ Cell With B-SNAF2/4-BDP: Cells were incubated with B-SNAF2-BDP or B-SNAF4-BDP (2 μM) at 37° C. for 2 hours and then were then washed three times with cold PBS. The cells were fixed with 4% paraformaldehyde and stained with 2 μM Hoechst 33258 (Sigma) for 10 min. The cells were washed three times with PBS mounted with 2 μM Hoechst 33258 (Sigma) at 37° C. for 20 min. Cells were then fixed and imaged using a confocal laser scanning microscope (Zeiss LSM710; Zeiss America) with DAPI and DsRed filters. The images were processed using the ImageJ software package (National Institutes of Health).

Chain of recombinant human MetAP2 (P50579 whole entry): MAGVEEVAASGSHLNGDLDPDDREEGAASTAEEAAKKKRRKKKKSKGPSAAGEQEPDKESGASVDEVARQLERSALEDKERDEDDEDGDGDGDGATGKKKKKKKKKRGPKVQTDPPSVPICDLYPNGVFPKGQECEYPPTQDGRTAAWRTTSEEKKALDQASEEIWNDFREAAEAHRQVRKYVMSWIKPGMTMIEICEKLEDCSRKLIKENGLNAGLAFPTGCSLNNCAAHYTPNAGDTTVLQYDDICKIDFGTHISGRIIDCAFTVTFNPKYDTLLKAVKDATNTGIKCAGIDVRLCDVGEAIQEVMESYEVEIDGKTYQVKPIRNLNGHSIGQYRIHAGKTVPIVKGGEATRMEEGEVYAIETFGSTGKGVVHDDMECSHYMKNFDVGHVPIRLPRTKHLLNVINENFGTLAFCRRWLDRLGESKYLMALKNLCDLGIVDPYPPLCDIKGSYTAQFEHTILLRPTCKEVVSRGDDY

C#CCC(NC(=O)C(N)CS)C(=O)NCc1ccc(C(=O)NCCCOc2ccc3nc(C#N)ccc3c2)cc1 (centres unmarked) [Compound II]
1st order rate constant of intramolecular cyclization [1]: 1.2×10^−3 s^−1 and 1.2±0.04×10^−3 s^−1
diameter of nanoaggregates (DLS) [2]: 80 nm

CC(C)(S)[C@@H](N)C(=O)O [Entry 7, D-penicillamine]
2nd order rate constant k [3]: 0.029 ± 0.003 M⁻¹ s⁻¹
2nd order rate constant k ([3]; listed as D-penicillamine): 0.029 M⁻¹ s⁻¹
second-order reaction rate [3]: 0.06 M⁻¹ s⁻¹

CC(C)(C)OC(=O)NCCCOc1cnc(C#N)nc1 [Entry 6]
2nd order rate constant k [4]: 0.01 ± 0.0017 M⁻¹ s⁻¹
2nd order rate constant k ([4]; listed as alkoxy-substituted 2-pyrimidinecarbonitrile): 0.01 M⁻¹ s⁻¹

CO[C@@H]1[C@H](OC(=O)NC(=O)CCl)CC[C@]2(CO2)[C@H]1[C@@]1(C)O[C@@H]1CC=C(C)C [TNP-470, reference compound]
effect on M-SNAT fluorescence ([5]; PC3, TNP-470 2 μM): significantly reduced
inhibition of M-SNAT signal (flow cytometry) ([5]; PC3 cells treated, permealized and post-labeled): 22.7%
effect on M-SNAT fluorescence [6]: significantly reduced
tumor growth versus PBS-treated group (PC3 tumors; 50 mg/kg s.c., PC3 tumors): no significant difference

C#CCC1NC(=O)CCNC(=O)C2CSC(=N2)c2ncc(cn2)OCCCNC(=O)c2ccc(cc2)CNC1=O (centres unmarked) [cycl-V]
1st order rate constant of intramolecular cyclization [1]: 8.0±0.6×10^−4 s^−1

C#CCC1NC(=O)CNC(=O)C2(C)CSC(=N2)c2ncc(cn2)OCCCNC(=O)c2ccc(cc2)CNC1=O (centres unmarked) [cycl-VI]
1st order rate constant of intramolecular cyclization [1]: 2.7±0.1×10^−3 s^−1

CCSSCC(NC(=O)C(N)CCSC)C(=O)NCC(=O)NC(Cc1cn(CCOCCOCCOCC[18F])nn1)C(=O)NCc1ccc(C(=O)NCCCOc2cnc(C#N)nc2)cc1 (centres unmarked) [^18F-M-SNAT]
tumor retention (PC3 tumors; PBS-treated PC3 tumors, at 90 min): About 1.3%
tumor uptake (PC3 tumors; PBS-treated PC3 tumors, within 10 min): 1.6 % ID/cc
clearance (PC3 tumors; PC3 xenograft mice, 90 min PET/CT): fast clearance by kidney to bladder
tumor uptake (PC3 tumors; TNP-470 (inhibitor)-treated mice, whole scanning period): about 1 % ID/cc

C#CCC1NC(=O)CNC(=O)C2CSC(=N2)c2ncc(cn2)OCCCNC(=O)c2ccc(cc2)CNC1=O (centres unmarked) [cycl-IV]
1st order rate constant of intramolecular cyclization [1]: 2.1±0.07×10^−3 s^−1

C#CCC1NC(=O)C2CSC(=N2)c2ccc3cc(ccc3n2)OCCCNC(=O)c2ccc(cc2)CNC1=O (centres unmarked) [cycl-II]
diameter of nanoaggregates (DLS) [2]: around 80 nm

N#Cc1ncccn1 [Entry 5, 2-pyrimidinecarbonitrile]
2nd order rate constant k [4]: 0.99 ± 0.17 M⁻¹ s⁻¹
2nd order rate constant k ([4]; listed as 2-pyrimidinecarbonitrile): 0.99 M⁻¹ s⁻¹
second-order reaction rate [4]: 0.17 M⁻¹ s⁻¹

Cc1csc(C#N)n1 [4-methyl-2-thiazolecarbonitrile]
second-order reaction rate ([7]; with cysteine, Ye et al. (2011)): 0.7 M⁻¹ s⁻¹

C#CCC(NC(=O)CNC(=O)C(CSC)NC(=O)C(N)CCSC)C(=O)NCc1ccc(C(=O)NCCCOc2cnc(C#N)nc2)cc1 (centres unmarked) [M-SNAT-ctrl] (H-MC(Me)G[Pra][4Amb]-{NH(CH2)3O(2-CNpyrimidin5yl)}; configuration not given here)
Cy5 post-labeled fluorescence in cells ([5]; PC3, 20 μM, 24 h): not
Cy5 post-labeled fluorescence in cells [8]: not
macrocyclization (HPLC, mass spectrometry) (recombinant human MetAP2): could not cyclize

N#Cc1ncc(Br)cn1 [Entry 4, 5-bromo-2-pyrimidinecarbonitrile]
2nd order rate constant k [4]: 2.21 ± 0.037 M⁻¹ s⁻¹
2nd order rate constant k ([4]; listed as 5-bromo-2-pyrimidinecarbonitrile): 2.21 M⁻¹ s⁻¹
second-order reaction rate [4]: 0.58 M⁻¹ s⁻¹

CCSSCC(NC(=O)OCc1ccc(OC2O[C@H](CO)[C@H](O)[C@H](O)C2O)cc1)C(=O)NCC(=O)NC(CCCCNC(=O)CCc1ccc2n1[B-](F)(F)[N+]1=C(C)C=C(C)C1=C2)C(=O)NCc1ccc(C(=O)NCCCOc2cnc(C#N)nc2)cc1 (some centres unmarked) [B-SNAF4-BDP]
retention of fluorescent signal, 9L/LacZ over 9L/Luc ([9]; 2 μM, 37° C., 2 hours): 2.5 fold
retention of fluorescent signal, 9L/LacZ versus 9L/Luc ([9]; fluorescent imaging): significantly higher retention

O=C1NCCCOc2ccc3nc(ccc3c2)C2=NC(CS2)C(=O)NCc2ccc1cc2 (centres unmarked) [cycl-I]
diameter of nanoaggregates (DLS) [2]: around 80 nm

C[C@](N)(CS)C(=O)O [Entry 8, 2-methyl-L-cysteine]
2nd order rate constant k [3]: 5.35 ± 0.8 M⁻¹ s⁻¹
2nd order rate constant k ([3]; listed as 2-methyl-L-cysteine): 5.35 M⁻¹ s⁻¹
second-order reaction rate [3]: 5.7 M⁻¹ s⁻¹

N#Cc1ccc2cc(OCCCNC(=O)c3ccc(CNC(=O)C(N)CS)cc3)ccc2n1 (centres unmarked) [Compound I]
diameter of nanoaggregates (DLS) [2]: 80 nm

N#Cc1ccccn1 [Entry 3, 2-pyridinecarbonitrile]
2nd order rate constant k [7]: No Rxn^a
2nd order rate constant k ([7]; listed as 2-pyridinecarbonitrile): no reaction was observed
